This experiment addresses T1, PLCγ2 (Homo sapiens, UniProt P16885).
T1 sequence (P16885 1-1195): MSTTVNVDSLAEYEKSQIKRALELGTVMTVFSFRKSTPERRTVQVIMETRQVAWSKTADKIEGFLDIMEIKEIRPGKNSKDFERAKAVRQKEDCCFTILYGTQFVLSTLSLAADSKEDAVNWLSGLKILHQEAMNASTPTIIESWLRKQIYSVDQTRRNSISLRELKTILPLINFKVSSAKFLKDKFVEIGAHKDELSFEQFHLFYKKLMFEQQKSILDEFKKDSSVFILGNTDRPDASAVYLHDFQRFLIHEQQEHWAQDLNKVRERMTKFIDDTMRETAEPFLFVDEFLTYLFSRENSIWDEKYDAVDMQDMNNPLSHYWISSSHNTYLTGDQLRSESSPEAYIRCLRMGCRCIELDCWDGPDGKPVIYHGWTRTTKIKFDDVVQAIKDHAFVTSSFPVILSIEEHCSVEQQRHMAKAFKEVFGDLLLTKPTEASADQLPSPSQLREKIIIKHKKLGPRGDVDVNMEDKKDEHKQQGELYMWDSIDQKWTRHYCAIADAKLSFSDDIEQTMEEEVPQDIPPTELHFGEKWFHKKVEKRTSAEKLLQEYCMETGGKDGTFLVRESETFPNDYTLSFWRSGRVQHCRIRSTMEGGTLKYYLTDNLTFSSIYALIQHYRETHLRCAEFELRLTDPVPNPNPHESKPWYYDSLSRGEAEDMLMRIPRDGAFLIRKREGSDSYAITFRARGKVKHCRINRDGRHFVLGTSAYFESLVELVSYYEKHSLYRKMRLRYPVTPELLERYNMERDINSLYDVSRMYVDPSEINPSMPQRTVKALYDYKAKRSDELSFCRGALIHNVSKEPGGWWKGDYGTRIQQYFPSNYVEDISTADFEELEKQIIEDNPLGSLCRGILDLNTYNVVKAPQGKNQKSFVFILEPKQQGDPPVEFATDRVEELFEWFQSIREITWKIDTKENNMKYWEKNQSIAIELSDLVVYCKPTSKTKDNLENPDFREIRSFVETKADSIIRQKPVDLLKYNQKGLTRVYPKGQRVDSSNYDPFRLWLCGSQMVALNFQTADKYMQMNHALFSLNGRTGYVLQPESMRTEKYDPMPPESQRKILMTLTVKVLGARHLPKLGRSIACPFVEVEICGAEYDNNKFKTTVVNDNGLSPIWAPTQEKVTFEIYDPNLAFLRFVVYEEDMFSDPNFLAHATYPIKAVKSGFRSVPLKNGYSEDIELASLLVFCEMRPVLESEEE
Briefly: inhibition of C8CF3-coumarin processing by purified enzyme. The format is biochemical.

In general, IC50 refers to the midpoint of a concentration-inhibition curve. High values mean weaker potency in that assay, low ones greater potency in that assay. Turning to `Nc1ncnc2c1ncn2[C@@H]1O[C@H](COP(=O)(O)OP(=O)(O)OP(=O)(O)O)[C@@H](O)[C@H]1O` [adenosine triphosphate], the midpoint of inhibition, the IC50, lay at 27.2 µM.

These data come from PMC10251139 (SLAS discovery : advancing life sciences R & D, 2023).
